Legend:
HDAC1 = target: T1, HDAC1 (Homo sapiens, UniProt Q13547); assay: Inhibition of HDAC1 activity (HDAC1 fluorimetric drug discovery assay kit); assay type: biochemical; conditions: test concentrations 100, 1000 and 10000 nM; 37° C., 60 minutes
T1 construct: purchased Enzolifesciences BML-AK511
Procedure, shortened: (§1)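 HDAC1 tested with the kit assay mixture at 100, 1000 and 10000 nM compound; recombinant human HDAC6 at 0.1, 1, 10, 100 and 1000 nM. Reaction ran 60 min at 37° C, then developer was added for 30 min at 37° C and fluorescence quantified.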

HDAC6 human recombinant = target: T2, HDAC6 human recombinant (Homo sapiens, UniProt Q9UBN7); assay: Inhibition of HDAC6 activity (fluorimetric assay); assay type: biochemical; conditions: test concentrations 0.1, 1, 10, 100 and 1000 nM; 37° C., 60 minutes
T2 construct: purchased Calbiochem 382180
T2 sequence (Q9UBN7 1-1215): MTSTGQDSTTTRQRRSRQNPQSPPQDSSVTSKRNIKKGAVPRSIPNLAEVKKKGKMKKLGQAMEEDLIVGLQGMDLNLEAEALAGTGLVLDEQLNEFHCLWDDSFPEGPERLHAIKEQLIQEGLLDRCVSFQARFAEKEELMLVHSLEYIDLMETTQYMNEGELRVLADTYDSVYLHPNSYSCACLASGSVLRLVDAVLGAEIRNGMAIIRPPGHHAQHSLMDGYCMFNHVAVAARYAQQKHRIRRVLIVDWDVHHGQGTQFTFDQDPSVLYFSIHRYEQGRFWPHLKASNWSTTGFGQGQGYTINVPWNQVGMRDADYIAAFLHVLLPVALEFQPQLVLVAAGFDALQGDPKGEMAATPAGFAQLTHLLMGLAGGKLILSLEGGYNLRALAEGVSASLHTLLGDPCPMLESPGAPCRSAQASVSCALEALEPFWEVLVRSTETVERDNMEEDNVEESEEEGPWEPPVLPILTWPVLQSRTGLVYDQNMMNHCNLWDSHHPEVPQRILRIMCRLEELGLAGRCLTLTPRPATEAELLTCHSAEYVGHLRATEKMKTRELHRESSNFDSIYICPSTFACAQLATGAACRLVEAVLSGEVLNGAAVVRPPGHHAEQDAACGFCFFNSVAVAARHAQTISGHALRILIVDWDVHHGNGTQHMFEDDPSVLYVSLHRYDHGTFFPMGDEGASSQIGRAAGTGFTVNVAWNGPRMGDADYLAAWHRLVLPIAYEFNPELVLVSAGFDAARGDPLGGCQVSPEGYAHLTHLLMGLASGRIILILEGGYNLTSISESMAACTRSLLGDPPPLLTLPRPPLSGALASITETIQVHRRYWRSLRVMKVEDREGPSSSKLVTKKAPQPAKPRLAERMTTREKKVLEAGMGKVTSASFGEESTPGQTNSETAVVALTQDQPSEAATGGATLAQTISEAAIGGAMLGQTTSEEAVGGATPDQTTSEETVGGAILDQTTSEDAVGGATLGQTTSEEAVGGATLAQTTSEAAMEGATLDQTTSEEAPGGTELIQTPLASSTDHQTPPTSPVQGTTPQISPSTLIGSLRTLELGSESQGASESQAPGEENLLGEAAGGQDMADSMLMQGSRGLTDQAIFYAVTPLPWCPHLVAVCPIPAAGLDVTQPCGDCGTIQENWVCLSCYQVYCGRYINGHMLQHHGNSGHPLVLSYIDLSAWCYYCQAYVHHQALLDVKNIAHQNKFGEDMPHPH
Procedure, shortened: as §1

T1 sequence (Q13547 whole entry): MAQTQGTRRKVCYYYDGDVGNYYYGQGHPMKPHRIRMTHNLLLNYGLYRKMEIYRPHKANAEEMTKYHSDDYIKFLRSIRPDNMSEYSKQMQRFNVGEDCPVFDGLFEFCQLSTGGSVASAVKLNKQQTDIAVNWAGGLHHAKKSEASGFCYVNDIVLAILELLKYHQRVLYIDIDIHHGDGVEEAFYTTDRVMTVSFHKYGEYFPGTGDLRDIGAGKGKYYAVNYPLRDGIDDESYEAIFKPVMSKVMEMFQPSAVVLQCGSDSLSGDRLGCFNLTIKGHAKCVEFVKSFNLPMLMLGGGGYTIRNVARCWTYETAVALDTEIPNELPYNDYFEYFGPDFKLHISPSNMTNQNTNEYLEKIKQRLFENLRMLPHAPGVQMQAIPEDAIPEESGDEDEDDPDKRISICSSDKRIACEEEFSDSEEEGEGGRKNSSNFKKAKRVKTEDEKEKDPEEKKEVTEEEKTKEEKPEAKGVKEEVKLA

Row | IC50 (HDAC1) | IC50 (HDAC6 human recombinant) | SMILES
1 | 280 nM | 3.8 nM | O=C(NO)c1ccc(Cn2ccc3c(C4CCN(Cc5ncccn5)CC4)ccnc32)cc1 [Compound 966, N-hydroxy-4-((4-(1-(pyrimidin-2-ylmethyl)piperidin-4-yl)-1H-pyrrolo[2,3-b]pyridin-1-yl)methyl)benzamide]
2 | 530 nM | 7.6 nM | CN1CCN(c2ccccc2CN2CCC(c3ccnc4c3ccn4Cc3ccc(C(=O)NO)cc3)CC2)CC1 [Compound 984, N-hydroxy-4-((4-(1-(2-(4-methylpiperazin-1-yl)benzyl)piperidin-4-yl)-1H-pyrrolo[2,3-b]pyridin-1-yl)methyl)benzamide]
3 | 510 nM | 2.3 nM | O=C(NO)c1ccc(Cn2ccc3c(C4CCN(Cc5cccc(CN6CCOCC6)c5)CC4)ccnc32)cc1 [Compound 985, N-hydroxy-4-((4-(1-(3-(morpholinomethyl)benzyl)piperidin-4-yl)-1H-pyrrolo[2,3-b]pyridin-1-yl)methyl)benzamide]
4 | 420 nM | 11.5 nM | CN1CCN(Cc2cccc(CN3CCC(c4ccnc5c4ccn5Cc4ccc(C(=O)NO)cc4)CC3)c2)CC1 [Compound 986, N-hydroxy-4-((4-(1-(3-((4-methylpiperazin-1-yl)methyl)benzyl)piperidin-4-yl)-1H-pyrrolo[2,3-b]pyridin-1-yl)methyl)benzamide]
5 | 320 nM | 5.7 nM | O=C(NO)c1ccc(Cn2ccc3c(C4CCN(Cc5ccc(CN6CCOCC6)cc5)CC4)ccnc32)cc1 [Compound 987, N-hydroxy-4-((4-(1-(4-(morpholinomethyl)benzyl)piperidin-4-yl)-1H-pyrrolo[2,3-b]pyridin-1-yl)methyl)benzamide]
6 | 290 nM | 5.9 nM | CN1CCN(Cc2ccc(CN3CCC(c4ccnc5c4ccn5Cc4ccc(C(=O)NO)cc4)CC3)cc2)CC1 [Compound 988, N-hydroxy-4-((4-(1-(4-((4-methylpiperazin-1-yl)methyl)benzyl)piperidin-4-yl)-1H-pyrrolo[2,3-b]pyridin-1-yl)methyl)benzamide]
7 | 1360 nM | 4.6 nM | C[C@@H]1CN(c2ccnc3c2ccn3Cc2ccc(C(=O)NO)cc2)C[C@H](C)N1Cc1ccccc1 [Compound 990, 4-((4-((3S,5R)-4-benzyl-3,5-dimethylpiperazin-1-yl)-1H-pyrrolo[2,3-b]pyridin-1-yl)methyl)-N-hydroxybenzamide]
8 | 880 nM | 32 nM | CC(C)(O)CN1CCC(c2ccc3ccn(Cc4ccc(C(=O)NO)cc4)c3n2)CC1 [Compound 991, N-hydroxy-4-((6-(1-(2-hydroxy-2-methylpropyl)piperidin-4-yl)-1H-pyrrolo[2,3-b]pyridin-1-yl)methyl)benzamide]
9 | 860 nM | 34 nM | O=C(NO)c1ccc(Cn2ccc3ccc(C4CCN(Cc5cccnc5)CC4)nc32)cc1 [Compound 992, N-hydroxy-4-((6-(1-(pyridin-3-ylmethyl)piperidin-4-yl)-1H-pyrrolo[2,3-b]pyridin-1-yl)methyl)benzamide]
10 | 2680 nM | 7.7 nM | COc1cccc(CN2[C@H](C)CN(c3cnc4c(ccn4Cc4ccc(C(=O)NO)cc4)c3)C[C@@H]2C)c1 [Compound 1003]
11 | 610 nM | 3.2 nM | C[C@@H]1CN(c2cnc3c(ccn3Cc3ccc(C(=O)NO)cc3)c2)C[C@H](C)N1Cc1cccnc1 [Compound 1004, 4-((5-((3S,5R)-3,5-dimethyl-4-(pyridin-3-ylmethyl)piperazin-1-yl)-1H-pyrrolo[2,3-b]pyridin-1-yl)methyl)-N-hydroxybenzamide]
12 | 750 nM | 5.5 nM | C[C@@H]1CN(c2cnc3c(ccn3Cc3ccc(C(=O)NO)cc3)c2)C[C@H](C)N1Cc1ncccn1 [Compound 1005, 4-((5-((3S,5R)-3,5-dimethyl-4-(pyrimidin-2-ylmethyl)-1-yl)-1H-pyrrolo[2,3-b]pyridin-1-yl)methyl)-N-hydroxybenzamide]
13 | 670 nM | 8.5 nM | O=C(NO)c1ccc(Cn2ccc3c(C4CCN(Cc5cccnc5)CC4)ccnc32)cc1 [Compound 1014, N-hydroxy-4-((4-(1-(pyridin-3-ylmethyl)piperidin-4-yl)-1H-pyrrolo[2,3-b]pyridin-1-yl)methyl)benzamide]
14 | 670 nM | 8.5 nM | CC(CC(=O)O)N1CCC(c2ccnc3c2ccn3Cc2ccc(C(=O)NO)cc2)CC1 (stereo not drawn) [Compound 1015, 3-(4-(1-(4-(hydroxycarbamoyl)benzyl)-1H-pyrrolo[2,3-b]pyridin-4-yl)piperidin-1-yl)butanoic acid]
15 | 220 nM | 6 nM | CC(C)(O)CN1C2CCC1CN(c1ccnc3c1ccn3Cc1ccc(C(=O)NO)cc1)C2 [Compound 1017, N-hydroxy-4-((4-(8-(2-hydroxy-2-methylpropyl)-3,8-diazabicyclo[3.2.1]octan-3-yl)-1H-pyrrolo[2,3-b]pyridin-1-yl)methyl)benzamide]
16 | 260 nM | 6.8 nM | O=C(NO)c1ccc(Cn2ccc3c(N4CC5CCC(C4)N5Cc4cccnc4)ccnc32)cc1 [Compound 1019, N-hydroxy-4-((4-(8-(pyridin-3-ylmethyl)-3,8-diazabicyclo[3.2.1]octan-3-yl)-1H-pyrrolo[2,3-b]pyridin-1-yl)methyl)benzamide]
17 | 240 nM | 14 nM | COc1ccc(CN2CCC3(CCN(c4ccnc5c4ccn5Cc4ccc(C(=O)NO)cc4)CC3)C2)cc1 [Compound 1021, N-hydroxy-4-((4-(2-(4-methoxybenzyl)-2,8-diazaspiro[4.5]decan-8-yl)-1H-pyrrolo[2,3-b]pyridin-1-yl)methyl)benzamide]
18 | 70 nM | 5.8 nM | O=C(NO)c1ccc(Cn2ccc3c(N4CCC5(CCN(Cc6cccnc6)C5)CC4)ccnc32)cc1 [Compound 1022, N-hydroxy-4-((4-(2-(pyridin-3-ylmethyl)-2,8-diazaspiro[4.5]decan-8-yl)-1H-pyrrolo[2,3-b]pyridin-1-yl)methyl)benzamide]
19 | 560 nM | 3.3 nM | COc1ccc(CN2CC3(CCN(c4ccnc5c4ccn5Cc4ccc(C(=O)NO)cc4)CC3)C2)cc1 [Compound 1023, N-hydroxy-4-((4-(2-(4-methoxybenzyl)-2,7-diazaspiro[3.5]nonan-7-yl)-1H-pyrrolo[2,3-b]pyridin-1-yl)methyl)benzamide]
20 | 190 nM | 1.8 nM | O=C(NO)c1ccc(Cn2ccc3c(N4CCC5(CC4)CN(Cc4cccnc4)C5)ccnc32)cc1 [Compound 1024, N-hydroxy-4-((4-(2-(pyridin-3-ylmethyl)-2,7-diazaspiro[3.5]nonan-7-yl)-1H-pyrrolo[2,3-b]pyridin-1-yl)methyl)benzamide]
21 | 170 nM | 1.1 nM | CC(C)(O)CN1CC2(CCN(c3ccnc4c3ccn4Cc3ccc(C(=O)NO)cc3)CC2)C1 [Compound 1025, N-hydroxy-4-((4-(2-(2-hydroxy-2-methylpropyl)-2,7-diazaspiro[3.5]nonan-7-yl)-1H-pyrrolo[2,3-b]pyridin-1-yl)methyl)benzamide]
22 | 420 nM | 1.4 nM | CC(C)(C(=O)O)N1CCC(c2ccnc3c2ccn3Cc2ccc(C(=O)NO)cc2)CC1 [Compound 1028, 2-(4-(1-(4-(hydroxycarbamoyl)benzyl)-1H-pyrrolo[2,3-b]pyridin-4-yl)piperidin-1-yl)-2-methylpropionic acid]
23 | 500 nM | 1 nM | O=C(NO)c1ccc(Cn2ccc3cc(N4CCC5(CCN(Cc6cccnc6)C5)CC4)cnc32)cc1 [Compound 1101, N-hydroxy-4-((5-(2-(pyridin-3-ylmethyl)-2,8-diazaspiro[4.5]decan-8-yl)-1H-pyrrolo[2,3-b]pyridin-1-yl)methyl)benzamide]
24 | 640 nM | 1.24 nM | O=C(NO)c1ccc(Cn2ccc3cc(N4CCC5(CC4)CN(Cc4ccccn4)C5)cnc32)cc1 [Compound 1126, N-hydroxy-4-((5-(2-(pyridin-2-ylmethyl)-2,7-diazaspiro[3.5]nonan-7-yl)-1H-pyrrolo[2,3-b]pyridin-1-yl)methyl)benzamide]

— patent US9650379B2 (CHONG KUN DANG PHARMACEUTICAL CORP., priority 2013, dated 2017)
